Measurements as given in the supplement of paper PMC10307832.

Key:
Experiment in all cases: relative viability (nuclei count vs DMSO), 5 days (fraction); higher = more cells survive
Midostaurin + Tozasertib = compound: CO[C@@H]1[C@H](N(C)C(=O)c2ccccc2)C[C@H]2O[C@]1(C)n1c3ccccc3c3c4c(c5c6ccccc6n2c5c31)C(=O)NC4 [Midostaurin] + Cc1cc(Nc2cc(N3CCN(C)CC3)nc(Sc3ccc(NC(=O)C4CC4)cc3)n2)n[nH]1 [Tozasertib] (partner 0.1 µM)
Procedure, shortened: (§1)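 Dosing by pin tool came one day after lung cancer cell lines were seeded in 1536-well plates, using either one drug or a fixed anchor-drug dose plus five library-drug doses (not always all listed) in √10 steps. After 5 days, nuclei were counted on 4× images. Relative viability is treated-well nuclei count divided by vehicle-well nuclei count, and values are medians of duplicate plates.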

Midostaurin + Decitabine = compound: CO[C@@H]1[C@H](N(C)C(=O)c2ccccc2)C[C@H]2O[C@]1(C)n1c3ccccc3c3c4c(c5c6ccccc6n2c5c31)C(=O)NC4 [Midostaurin] + Nc1ncn([C@H]2C[C@H](O)[C@@H](CO)O2)c(=O)n1 [Decitabine] (partner 2 µM)
Procedure, shortened: as §1

[1] = compound: COc1cc(-c2nn([C@H]3CC[C@H](N4CCN(C(C)=O)CC4)CC3)c3ncnc(N)c23)ccc1NC(=O)c1cc2ccccc2n1C + COc1cccc2cc(-c3nc([C@H]4CC[C@H](C(=O)O)CC4)n4ncnc(N)c34)[nH]c12 [OSI-027] (partner 0.5 µM)
Procedure, shortened: as §1

[2] = compound: COc1cc(-c2nn([C@H]3CC[C@H](N4CCN(C(C)=O)CC4)CC3)c3ncnc(N)c23)ccc1NC(=O)c1cc2ccccc2n1C + Cc1nc(NC(=O)N2CCC[C@H]2C(N)=O)sc1-c1ccnc(C(C)(C)C(F)(F)F)c1 [Alpelisib] (partner 2 µM)
Procedure, shortened: as §1

[3] = compound: COc1cc(-c2nn([C@H]3CC[C@H](N4CCN(C(C)=O)CC4)CC3)c3ncnc(N)c23)ccc1NC(=O)c1cc2ccccc2n1C + Cc1nc(Nc2ncc(C(=O)Nc3c(C)cccc3Cl)s2)cc(N2CCN(CCO)CC2)n1 [Dasatinib] (partner 0.075 µM)
Procedure, shortened: as §1

## UMC-11
Midostaurin + Tozasertib; first compound 0.01 µM
  relative viability: 0.208
Midostaurin + Tozasertib; first compound 0.03162 µM
  relative viability: 0.18
Midostaurin + Tozasertib; first compound 0.1 µM
  relative viability: 0.196
Midostaurin + Tozasertib; first compound 0.3162 µM
  relative viability: 0.174
Midostaurin + Decitabine; first compound 0.01 µM
  relative viability: 0.655
Midostaurin + Decitabine; first compound 0.03162 µM
  relative viability: 0.772
Midostaurin + Decitabine; first compound 0.1 µM
  relative viability: 0.637
Midostaurin + Decitabine; first compound 0.3162 µM
  relative viability: 0.704
[1]; first compound 0.0128 µM
  relative viability: 0.531
[1]; first compound 0.04048 µM
  relative viability: 0.463
[1]; first compound 0.128 µM
  relative viability: 0.474
[1]; first compound 1.28 µM
  relative viability: 0.414
[2]; first compound 0.0128 µM
  relative viability: 0.892
[2]; first compound 0.04048 µM
  relative viability: 0.956
[2]; first compound 0.128 µM
  relative viability: 0.986
[2]; first compound 1.28 µM
  relative viability: 0.746
[3]; first compound 0.0128 µM
  relative viability: 0.49
[3]; first compound 0.04048 µM
  relative viability: 0.468
[3]; first compound 0.128 µM
  relative viability: 0.42
[3]; first compound 1.28 µM
  relative viability: 0.446
